Here are results for one molecule from patent publication US7304174B2, “CaSR antagonist” (Japan Tobacco Inc., priority 2003, dated 2007).

The target in one test is T1, human calcium receptor (Homo sapiens, UniProt P41180).
T1 construct: expressed in transfected cells; host or cells: cell strain derived from rat adrenal, co-transformed with luciferase cDNA
T1 sequence (P41180 20-1078): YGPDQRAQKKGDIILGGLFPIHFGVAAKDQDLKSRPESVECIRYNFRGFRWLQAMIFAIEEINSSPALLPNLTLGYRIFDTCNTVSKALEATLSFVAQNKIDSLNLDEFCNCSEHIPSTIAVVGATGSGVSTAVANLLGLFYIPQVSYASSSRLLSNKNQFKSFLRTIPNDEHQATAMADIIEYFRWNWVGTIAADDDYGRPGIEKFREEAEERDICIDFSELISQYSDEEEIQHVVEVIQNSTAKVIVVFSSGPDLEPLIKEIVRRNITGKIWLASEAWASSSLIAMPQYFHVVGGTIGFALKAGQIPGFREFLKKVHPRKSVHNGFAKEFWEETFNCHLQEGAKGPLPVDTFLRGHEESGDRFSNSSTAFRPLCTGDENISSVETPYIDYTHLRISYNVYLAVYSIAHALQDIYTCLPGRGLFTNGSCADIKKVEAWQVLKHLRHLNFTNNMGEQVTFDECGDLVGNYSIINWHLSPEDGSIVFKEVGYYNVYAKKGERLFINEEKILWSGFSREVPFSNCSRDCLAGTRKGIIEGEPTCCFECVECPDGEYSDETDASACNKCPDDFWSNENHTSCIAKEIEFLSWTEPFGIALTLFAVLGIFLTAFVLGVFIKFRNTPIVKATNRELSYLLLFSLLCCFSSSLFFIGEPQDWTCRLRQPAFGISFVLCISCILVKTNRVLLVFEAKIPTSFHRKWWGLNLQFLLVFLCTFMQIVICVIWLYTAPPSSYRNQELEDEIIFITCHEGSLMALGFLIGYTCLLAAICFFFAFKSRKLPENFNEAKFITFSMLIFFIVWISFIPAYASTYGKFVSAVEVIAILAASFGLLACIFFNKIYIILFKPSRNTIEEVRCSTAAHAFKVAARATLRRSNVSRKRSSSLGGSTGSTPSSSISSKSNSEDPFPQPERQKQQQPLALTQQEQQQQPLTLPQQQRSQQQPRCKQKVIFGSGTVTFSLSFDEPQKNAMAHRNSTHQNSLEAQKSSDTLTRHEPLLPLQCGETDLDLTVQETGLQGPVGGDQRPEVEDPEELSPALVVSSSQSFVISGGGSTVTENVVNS
Kind of test: Evaluation of antagonistic action on calcium receptor using reporter gene (luciferase). The class given is cell-based. As to conditions: transformed rat adrenal derived cells, 5 mM calcium chloride, culture 4 hrs, luciferase activity; read-out: Reporter gene assay (IC50, concentration showing 50% inhibitory rate). In outline: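 Rat adrenal-derived cells transfected with luciferase and human calcium receptor cDNA, in F12 with 0.5% dialyzed horse serum and 0.25% dialyzed fetal bovine serum. Luciferase luminescence gave % inhibition vs control and blank; IC50 at 50% inhibition.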
In general terms: Reporter assays use an easily measured gene product as a stand-in for the process of interest.

Another test concerns bone resorption. Kind of test: Concomitant administration of test compound and estrogen: bone resorption marker blood ICTP. The class given is in vivo, ovariectomized rats. The conditions noted are these: for Blood ICTP concentration: mean ± S.D., n = 5. The method, then: The 13-week-old ovariectomized rats were divided into 4 groups of a control group (Group A), an estrogen administration group (Group B), a test compound administration group (Group C), and a test compound and estrogen concomitant administration group (Group D). One sham control group (E group) subjected to a sham surgery was also established. Estradiol was dissolved in 5% benzyl alcohol-corn oil and subcutaneously administered to an estrogen administration groups (Group B and Group D) at the dose of 10 μg/kg. 5% Benzyl alcohol-corn oil was subcutaneously administered to groups (Group A and Group C) free from administration of estrogen. The compound of Example 1-1 was suspended in 0.5% methyl cellulose solution and orally administered to groups (Group C and Group D) to be administered with the test compound at the dose of 3 mg/kg. As regards the groups (Group A and Group B) free from administration of the test compound, 0.5% methyl cellulose solution was orally administered. On day 13 from the start of the administration, the blood was drawn in each group from the tail vein, and serum was obtained. ICTP, which is a blood bone resorption marker, was measured using a commercially available ELISA kit (“RatLaps ELISA kit”, Nordic Bioscience Diagnostics).

Another test relates to PTH secretion. Briefly: Concomitant administration of test compound and estrogen: blood PTH with time. The class given is in vivo, ovariectomized rats. As to conditions: for PTH (1–84) concentration 0.25 hr: day 16, 0.25 hr; for PTH (1–84) concentration 0.5 hr: day 16, 0.5 hr; for PTH (1–84) concentration 1 hr: day 16, 1 hr; for PTH (1–84) concentration 2 hr: day 16, 2 hr; for PTH (1–84) concentration 4 hr: day 16, 4 hr; for PTH (1–84) concentration 0 hr: day 16, immediately before oral administration. The method, then:
The 13-week-old ovariectomized rats were divided into 4 groups of a control group (Group A), an estrogen administration group (Group B), a test compound administration group (Group C), and a test compound and estrogen concomitant administration group (Group D). One sham control group (E group) subjected to a sham surgery was also established. Estradiol was dissolved in 5% benzyl alcohol-corn oil and subcutaneously administered to an estrogen administration groups (Group B and Group D) at the dose of 10 μg/kg. 5% Benzyl alcohol-corn oil was subcutaneously administered to groups (Group A and Group C) free from administration of estrogen. The compound of Example 1-1 was suspended in 0.5% methyl cellulose solution and orally administered to groups (Group C and Group D) to be administered with the test compound at the dose of 3 mg/kg. As regards the groups (Group A and Group B) free from administration of the test compound, 0.5% methyl cellulose solution was orally administered.
In addition, blood was drawn with time for the measurement of blood PTH at day 16 of administration. The blood was drawn in each group from the tail vein immediately before oral administration and 0.25, 0.5, 1, 2 and 4 hr later, and serum was obtained. For serum PTH measurement, a commercially available ELISA kit (“rat intact PTH ELISA kit”, Immutopics) was used.

Setting [1] is: Group D concomitant with estradiol.
[2] abbreviates: exclusive administration (Group B estradiol; Group C Example 1-1 3 mg/kg oral).

As to `Cc1ccc(CC(C)(C)NC[C@@H](O)CO[C@H](C)c2ccccc2-c2ccc(C(=O)O)c(C)c2)cc1F` [Example 1-1, 2′-[(1R)-[(2R)-3-[[1-(3-Fluoro-4-methylphenyl)-2-methylpropan-2-yl]amino]-2-hydroxypropoxy]ethyl]-3-methylbiphenyl-4-carboxylic acid], the IC50 at human calcium receptor was determined as 24 nM. Also, in the test on bone resorption (Table 65, concomitant with estrogen), the “Effect of concomitant administration on suppression of ICTP increase by estrogen” value is “did not show changes in the ability to suppress estrogen”. In addition, the “Blood ICTP concentration” value worked out at 21.77 ± 3.34 ng/mL with bone resorption (day 13, Group D: Example 1-1 3 mg/kg oral and estradiol 10 μg/kg s.c. concomitant); 26.10 ± 3.45 ng/mL with bone resorption (day 13, exclusive administration (Group B estradiol 10 μg/kg s.c.; Group C Example 1-1 3 mg/kg oral)). The “Change of blood PTH with time” value in the test with PTH secretion (Table 66, Example 1-1 and estrogen concomitant administration) is given as “a transitional increase was observed”; in the test on PTH secretion (Table 66, exclusive administration), “a transitional increase was observed”. Also, the “PTH (1–84) concentration 0.25 hr” value was found to be 407.35 ± 134.53 pg/mL with PTH secretion (setting [1]) and 371.21 ± 77.74 pg/mL with PTH secretion (setting [2]). Moreover, the “PTH (1–84) concentration 0.5 hr” value with PTH secretion (setting [1]) was 418.87 ± 154.78 pg/mL; in the test on PTH secretion (setting [2]), 370.78 ± 98.28 pg/mL. Further, the “PTH (1–84) concentration 1 hr” value in the test on PTH secretion (setting [1]) stood at 279.76 ± 117.98 pg/mL; with PTH secretion (setting [2]), 177.39 ± 96.06 pg/mL. Further, the “PTH (1–84) concentration 2 hr” value in the test on PTH secretion (setting [1]) stood at 115.50 ± 74.98 pg/mL; in the test on PTH secretion (setting [2]), 117.51 ± 123.12 pg/mL. In addition, the “PTH (1–84) concentration 4 hr” value was 58.84 ± 16.75 pg/mL in the test on PTH secretion (setting [1]) and 56.50 ± 12.29 pg/mL with PTH secretion (setting [2]). Also, the “PTH (1–84) concentration 0 hr” value in the test with PTH secretion (Group D: Example 1-1 3 mg/kg oral and estradiol 10 μg/kg s.c. concomitant) stood at 27.12 ± 4.58 pg/mL; in the test with PTH secretion (exclusive administration (Group B estradiol 10 μg/kg s.c.; Group C Example 1-1 3 mg/kg oral)), 31.19 ± 16.28 pg/mL.
